The numbers were not newly measured in US20230039272A1, “COMPOSITION FOR IMPROVED ENERGY, FOCUS AND CLARITY” (Gwella Mushrooms Inc., priority 2021, published 2023), which cites them from elsewhere.

Residues, ends and D or L forms follow the SMILES beside them. *: point of attachment. PhAc = O=C(Cc1ccccc1)*

The conditions of data set [1]: high doses for long periods of time.
For data set [2] the following is noted: patients with mild to moderate dementia.

Take `NC(=O)CN1CC(O)CC1=O` (stereo not shown) [Oxiracetam]: the safety result in data set [1] is reported as “save, even at high doses for long periods of time”. Further, in data set [2], the “quality of life scale” value is reported as “improved quality of life scale”; the “test scores on logical performance, attention, concentration, memory and spatial orientation” value is recorded as “higher test scores”. Moreover, the “step-down retention performance and acquisition performance in active-avoidance situations” value (in vivo) is “improve step-down retention performance and acquisition performance”. Moreover, the learning of animals entry (pre-clinical studies) was “improve learning of animals”.

As to `CCOC(=O)CNC(=O)[C@@H]1CCCN1C(=O)Cc1ccccc1` [N-phenylacetyl-L-prolylglycine ethyl ester] (PhAc-Pro-Gly-OEt), in the data set on Amyloid Beta exposure (animal models of Alzheimer's Disease, preliminary studies), the cognition restoring effect entry was “cognition restoring effect”. For the same molecule, the “neuroprotective effect (cell viability, calcium homeostasis, Reactive Oxygen Species levels, mitochondrial function, tau phosphorylation, neurite outgrowth)” value in the data set with Amyloid Beta exposure (impairments caused by Amyloid Beta exposure) is “neuroprotective effect”.
